Assay results as given in patent US20140248383A1, “SLEEP QUALITY IMPROVING AGENT” (LION CORPORATION, priority 2011, published 2014).

Tested on: male C57BL/6 mice
Test: Measurement of amount of activity of mice (sleep inducing effect)
Type: in vivo
Experimental: When a sample has the function of inducing sleep, the amount of activity always decreases after administration of the sample. Therefore, the sleep inducing effect of each sample was evaluated by determining whether or not the administration of the sample solution to a mouse caused a reduction in the amount of activity.
8-Week old or 9-week old male C57BL/6 mice were purchased from Japan SLC, Inc. and acclimatized for 3 to 6 days. The amount of activity during acclimatization was used to divide the mice into administration groups. Immediately before the onset of the dark period, Fraxinus excelsior L. extract was orally administered in an amount of 3 g/kg per body weight of a mouse (Example 1-1), or a 0.5% by mass aqueous methyl cellulose solution was orally administered in an amount of 10 mL/kg per body weight of a mouse (Comparative Example 1-1), and the amount of activity was measured for 24 hours after administration. Each administration group included 8 mice (n=8).
The amount of activity was measured under the following conditions. The mice were raised in individual cages, and an infrared camera was disposed above each cage. The imaging range of the infrared camera was divided into 64 sections, and the number of occurrences that the mouse crossed a section was measured. The number of occurrences was collected every 30 minutes. […]

O=C1c2c(O)cc(O)cc2O[C@H](c2ccc(O)c(O)c2)[C@H]1O [DIHYDROQUERCETIN, dihydroquercetin]
cumulative amount of activity 6 hours after administration (dihydroquercetin 2.7 g/kg oral immediately before dark period, n=4): 4700 number of occurrences/6 hours | cumulative amount of activity 6 hours after administration compared to control solution (dihydroquercetin 2.7 g/kg oral, n=4, significant difference at p<0.01): significantly lower
